Assay results as given in the CheMixHub viscosity set.

Assay: xn = mol fraction of the nth substance listed

CCOCCO + OCCOCCO
101 kPa
Details	viscosity [mPa·s]
293.15 K, x1 = 0.0582	33.17
293.15 K, x1 = 0.0952	30.25
293.15 K, x1 = 0.2037	23.28
293.15 K, x1 = 0.3098	18.21
293.15 K, x1 = 0.4062	14.48
293.15 K, x1 = 0.4503	13.03
293.15 K, x1 = 0.5003	11.5
293.15 K, x1 = 0.5413	10.37
293.15 K, x1 = 0.5988	8.935
293.15 K, x1 = 0.6952	6.844
293.15 K, x1 = 0.8031	4.921
293.15 K, x1 = 0.9002	3.465
293.15 K, x1 = 0.9508	2.759
298.15 K, x1 = 0.0511	26.45
298.15 K, x1 = 0.1023	23.41
298.15 K, x1 = 0.2003	18.57
298.15 K, x1 = 0.2998	14.7
298.15 K, x1 = 0.3988	11.61
298.15 K, x1 = 0.4514	10.25
298.15 K, x1 = 0.4998	9.068
298.15 K, x1 = 0.5476	8.079
298.15 K, x1 = 0.5996	7.096
298.15 K, x1 = 0.6983	5.447
298.15 K, x1 = 0.7991	4.05
298.15 K, x1 = 0.882	3.061
298.15 K, x1 = 0.95	2.337
303.15 K, x1 = 0.0643	18.69
303.15 K, x1 = 0.0932	17.45
303.15 K, x1 = 0.2072	13.23
303.15 K, x1 = 0.3008	10.56
303.15 K, x1 = 0.4001	8.317
303.15 K, x1 = 0.4496	7.372
303.15 K, x1 = 0.4939	6.612
303.15 K, x1 = 0.5508	5.751
303.15 K, x1 = 0.5913	5.201
303.15 K, x1 = 0.701	3.93
303.15 K, x1 = 0.7959	3.051
303.15 K, x1 = 0.899	2.267
303.15 K, x1 = 0.9218	2.117

CCOCCO + O=C1CCCCC1
298.15 K, 101 kPa
Details	viscosity [mPa·s]
x2 = 0.0926	1.684
x2 = 0.1867	1.587
x2 = 0.2824	1.529
x2 = 0.3797	1.494
x2 = 0.4787	1.469
x2 = 0.5793	1.472
x2 = 0.6818	1.506
x2 = 0.786	1.564
x2 = 0.892	1.691

CC(C)CCO + O
Details	viscosity [mPa·s]
293.15 K, 101.33 kPa, x1 = 0.0021	1.074
293.15 K, 101.33 kPa, x1 = 0.0042	1.123
293.15 K, 101.33 kPa, x1 = 0.0052	1.47
298.15 K, 101 kPa, x2 = 0.0019	3.738
298.15 K, 101 kPa, x2 = 0.0485	3.634
298.15 K, 101 kPa, x2 = 0.091	3.563
298.15 K, 101 kPa, x2 = 0.1325	3.518
298.15 K, 101 kPa, x2 = 0.1769	3.49
298.15 K, 101 kPa, x2 = 0.2065	3.482
298.15 K, 101 kPa, x2 = 0.2272	3.48
298.15 K, 101 kPa, x2 = 0.2538	3.486
298.15 K, 101 kPa, x2 = 0.3132	3.518
303.15 K, 101.33 kPa, x1 = 0.0021	0.851
303.15 K, 101.33 kPa, x1 = 0.0042	0.894
303.15 K, 101.33 kPa, x1 = 0.0052	0.907
313.15 K, 101.33 kPa, x1 = 0.0021	0.693
313.15 K, 101.33 kPa, x1 = 0.0042	0.721
323.15 K, 101.33 kPa, x1 = 0.0021	0.59
323.15 K, 101.33 kPa, x1 = 0.0042	0.617

Oc1ccc(Cl)cc1 + CCCCCOC(C)=O
Details	viscosity [mPa·s]
298.15 K, 101 kPa, x1 = 0.5	1.27

C[C@@H](O)[C@H](N)C(=O)[O-].[Na+] + O
viscosity [mPa·s], 101 kPa
Details	x1 = 0.004484	x1 = 0.008927	x1 = 0.01333	x1 = 0.0177	x1 = 0.02202	x1 = 0.02631	x1 = 0.03478	x1 = 0.0431	x1 = 0.05127
293.15 K	1.122	1.27	1.439	1.636	1.856	2.096	2.659	3.317	4.073
303.15 K	0.9	1.012	1.138	1.279	1.425	1.594	1.993	2.414	2.986
313.15 K	0.734	0.821	0.914	1.024	1.132	1.258	1.55	1.858	2.25
323.15 K	0.612	0.681	0.755	0.84	0.925	1.021	1.242	1.482	1.767

CNC(C)=O + CC(C)(C)O
303.15 K, 101 kPa
Details	viscosity [mPa·s]
x1 = 0.0809	4.253
x1 = 0.1017	4.365
x1 = 0.2071	4.448
x1 = 0.3102	4.22
x1 = 0.4103	4.026
x1 = 0.5002	3.864
x1 = 0.6021	3.776
x1 = 0.7095	3.752
x1 = 0.8039	3.747
x1 = 0.9007	3.778

Oc1ccc(Cl)cc1 + CCCCNCCCC
298.16 K, 101 kPa
Details	viscosity [mPa·s]
x1 = 0.4053	3.541
x1 = 0.5045	11.99
x1 = 0.5585	31.68
x1 = 0.6051	56.94
x1 = 0.6526	126.7
x1 = 0.6871	181.4
x1 = 0.7235	251.1
x1 = 0.7533	273.6
x1 = 0.7813	263
x1 = 0.8104	221
x1 = 0.84	163.2
x1 = 0.8686	111.1
x1 = 0.8961	79.37
x1 = 0.9256	53.62
x1 = 0.9749	26.85
